How the values were obtained:
ZmCAS1 transcript = assay: Northern blot of maize RNA with ZmCAS1 probe after CBSU treatment; type: in vivo; details: for ZmCAS1 hybridization signal in anther mRNA: FIG. 2
Method: Wild type maize plants were grown to the meiosis stage of microspore development. Plants were watered with 30 mg 2-CBSU and allowed to develop to the quartet and early vacuolate stage of microspore development. PolyA+ anther RNA was isolated from wild type control and CBSU treated plants and stored. A cDNA library was constructed from mRNAs isolated from CBSU-treated plants, arrayed onto nylon filters and stored. A cDNA subtraction library was generated using the Clontech PCR-Select cDNA Subtraction Kit (#K1804-1) following the manufacturer's instructions to enrich for CBSU-specific transcripts. Using this approach anther PolyA+mRNA from wild-type plants was used to enrich for transcripts found in the anther PolyA+mRNA from CBSU treated plants. This cDNA subtraction library was subcloned into pSPORT (BRL) vector, colonies plated, picked and sequenced. Among the vector inserts sequenced, two DNA sequences were present at a high proportion, at more than 10% of the inserts sequenced, and referred to as ZmCAS1c-1 (477 bp; SEQ ID NO: 1) and ZmCAS1c-2 (438 bp; SEQ ID NO: 2) (QBSU-Anther-Subtract 1). Both ZmCAS1c-1 and ZmCAS1c-2 had sequence identity to mannitol dehydrogenases from plants. ZmCASlc-1 and ZmCAS1c-2 DNA fragments were used as hybridization probes to screen the filter arrayed cDNA CBSU-anther library described above to isolate full-length cDNA containing hybridizing clones. Both ZmCAS1c-1 and ZmCAS1c-2 identified identical cDNA clones. […]
(§1) To determine whether the ZmCAS1 cDNA was 1) induced in maize anthers by CBSU-treatment and 2) reduced or absent in tapetum and microspore-ablated maize anthers from CBSU-treated 5126:DAM plants, a 477 bp ZmCAS1c-1 DNA fragment (SEQ ID NO:1), as well as DNA fragments from ZmMS45, Zm5126, ZmActin, and ZmUbiquitin (Cigan et al. 2001. […] MS45 and 5126 transcripts were easily detected in anther RNAs from male-fertile plants but absent in anther RNAs from male-sterile plants (FIG. 2) further supporting the observation that these RNAs are localized to the maize tapetum (Cigan et al. 2001. Sex. Plant Reprod. 14, 135-142).

IN2-2 transcript = assay: Northern blot of maize anther RNA with IN2-2 probe after CBSU treatment; type: in vivo; details: CBSU-treated male-fertile and male-sterile plants, FIG. 2
Method: Wild type maize plants were grown to the meiosis stage of microspore development. Plants were watered with 30 mg 2-CBSU and allowed to develop to the quartet and early vacuolate stage of microspore development. PolyA+ anther RNA was isolated from wild type control and CBSU treated plants and stored. A cDNA library was constructed from mRNAs isolated from CBSU-treated plants, arrayed onto nylon filters and stored. A cDNA subtraction library was generated using the Clontech PCR-Select cDNA Subtraction Kit (#K1804-1) following the manufacturer's instructions to enrich for CBSU-specific transcripts. Using this approach anther PolyA+mRNA from wild-type plants was used to enrich for transcripts found in the anther PolyA+mRNA from CBSU treated plants. […]
as §1

1.7 kb ZmCAS1 promoter [1] = assay: X-Gluc GUS staining of maize callus transformed with PHP16975; type: cell-based; details: room temperature, 18 hours, FIG. 4A
Description: Agrobacterium-mediated transformation of immature embryos was used to generate integrated copies of PHP16974 (SEQ ID NO:11; ZmCAS1HindIII Pro:GUS/35SPAT) comprising the 1.0 kb ZmCAS1 promoter (SEQ ID NO:9), PHP16975 (SEQ ID NO:12, ZmCAS1BamPro:GUS/35SPAT) comprising the 1.7 kb ZmCAS1 promoter (SEQ ID NO:10) and PHP16972 (SEQ ID NO:13, ZmCAS1 HindIII Pro:MS45/35SPAT) comprising the 1.0 kb ZmCAS1 promoter or PHP16973 (SEQ ID NO:14, ZmCASIBamPro:MS45/35SPAT:) comprising the 1.7 kb ZmCAS1 promoter.
To determine whether the 1.7 kb or the 1.0 kb ZmCAS1 promoter from maize could direct induced expression of the GUS reporter, three bialophos-resistant callus events were placed onto maintenance media and maintenance media containing increasing amounts of the safener CBSU-2 for at room temperature for 18 hours, removed and stained with X-Gluc to detect GUS activity.

1.0 kb ZmCAS1 promoter [2] = assay: X-Gluc GUS staining of maize callus transformed with PHP16974; type: cell-based; details: seven PHP16974 callus events, 100 mg/liter CBSU, room temperature, FIG. 4B
1.7 kb ZmCAS1 promoter [3] = assay: GUS expression in leaf punches of maize plants transformed with PHP16975; type: in vivo; details: 2 days after watering with 30 mg of 2-CBSU, 3 PHP16975 plants, FIG. 5
Method: Plants were also regenerated from callus events containing PHP16975 and grown in the greenhouse to approximately the 5 leaf stage. At this stage of development, leaf punches from plants regenerated from the 3 bialophos-resistant events shown in FIG. 5 were collected pre- (C) and post-watering (S) with 30 mg of 2-CBSU to examine GUS expression in leaf in response to application of the safener.

1.0 kb ZmCAS1 promoter [4] = assay: Northern analysis of MS45 mRNA in ms45/ms45 maize callus transformed with PHP16972; type: cell-based; details: 100 mg/liter CBSU, room temperature, 18 hours, FIG. 6
Description: T-DNA vectors PHP16972 (SEQ ID NO:13, ZmCAS1HindIII Pro: MS45/35S:PAT) and PHP16973 (SEQ ID NO: 14, ZmCAS1 BamPro:MS45/35S:PAT) were used to transform maize callus which was generated to contain a segregating population of MS45/ms45 heterozygous and ms45/ms45 homozygous mutant plants. In order to detect MS45 RNA or protein expression under the control of the 1.0 or 1.7 kb ZmCAS promoter in maize anthers, plants containing a naturally occurring mutation in the maize MS45 gene which results in loss of MS45 RNA and protein were used for these studies. Pollen from MS45/ms45 plants were used to fertilize male-sterile ms45/ms45 plants for the purpose of generating embryos which would be ms45/ms45 as described in Cigan et al 2001. […] Five random bialophos-resistant callus events containing integrated copies of PHP16972 were placed onto maintenance media (FIG. 5, (−)) and maintenance media containing 100 mg/liter safener CBSU-2 (FIG. 5 (+)) at room temperature for 18 hours, removed and PolyA+RNA prepared and used for RNA analysis as described (Cigan et al. 2001. Sex. Plant Reprod. 14, 135-142) using the ZmMS45 and ZmActin probes for hybridization analysis. […] A very low signal was observed when callus was grown in the absence of CBSU. Actin was used as a control probe to show nearly equivalent RNA levels were present in all samples. […]

1.7 kb ZmCAS1 promoter [5] = assay: Western analysis of MS45 protein in ms45/ms45 maize plants transformed with PHP16973; type: in vivo; details: PHP16973 plants watered with 30 mg of CBSU, collected 2 days later
1.0 kb ZmCAS1 promoter [6] = assay: X-Gluc GUS staining of rice callus transformed with PHP16974; type: cell-based, Oryza sativa cv.Kitaake; details: PHP16974 callus events, 100 mg/liter CBSU, 24 hours, FIG. 9
Description: To determine whether the ZmCAS1 promoter could conditionally regulate expression in response to safener treatment or heat treatment in plant species other than maize, Agrobacterium-mediated transformation was used to generate integrated copies of PHP16974 (ZmCAS1HindIII Pro:GUS) comprising the truncated 1.0 kb ZmCAS1 promoter for studies in rice. Scutellum from 10-14 day old germinating seeds (Oryza sativa cv.Kitaake) was used for rice transformation experiment (Toki. 1997, PI Mol. Biol Reporter 15:16-21). Bialophos-resistant callus events containing PHP16974 were selected and screened for their ability to respond to safener application. Four independent bialophos-resistant events were grown on maintenance media or maintenance media containing 100 mg/liter CBSU for 24 hours, removed and stained with X-Gluc. […] PHP16974 bialophos-resistant events were regenerated into plants. Leaf tissue was collected from these plants and used for DNA hybridization analyses to identify single-copy PHP16974 insertions. These plants were allowed to set selfed seed and were used for subsequent studies to monitor GUS expression under the transcriptional control of the ZmCAS1 promoter. Sixteen seed were selected from 2 single-copy PHP16974 events were sterilized, grown on hormone-free media at 28° C. or 37° C. for 48 hours and allowed to germinate. […]

With `NC(=O)NS(=O)(=O)c1ccccc1Cl` [CBSU, N-(aminocarbonyl)-2-chlorobenzenesulfonamide] the “ZmCAS1 hybridization in mRNAs from callus, leaf and anther” value (ZmCAS1 transcript; maize callus or leaf treated with CBSU, FIG. 3) was “strong hybridization”, the “ZmCAS1 hybridization signal in anther mRNA” value (ZmCAS1 transcript; male-fertile CBSU-treated plants (+, F)) was “strong hybridization signals” and the “ZmCAS1 hybridization signal in anther mRNA” value (ZmCAS1 transcript; male-sterile 5126:DAM CBSU-treated plants (+, S)) was “reduced ZmCAS1 signal”. For the same compound, the “IN2-2 hybridization signal in anther mRNA” value (IN2-2 transcript) was “strong hybridization signals”, the “GUS expression in callus” value (1.7 kb ZmCAS1 promoter [1]; 10 mg/l CBSU) was “low levels of GUS expression” and the “GUS expression in callus” value (1.7 kb ZmCAS1 promoter [1]; 100 mg/l CBSU) was “strong GUS expression”. The “GUS expression in callus” value (1.0 kb ZmCAS1 promoter [2]) was “inducible GUS expression”, the “GUS expression in leaf punches” value (1.7 kb ZmCAS1 promoter [3]) was “strong GUS expression” and the “MS45 mRNA hybridization signal in callus” value (1.0 kb ZmCAS1 promoter [4]) was “strong induction of a hybridization signal”. The “MS45 protein in leaf extracts” value (1.7 kb ZmCAS1 promoter [5]; FIG. 7) was “increased steady-state levels of the MS45 protein”, the “MS45 protein in anther extracts” value (1.7 kb ZmCAS1 promoter [5]; FIG. 8) was “Increased MS45 protein” and the “GUS expression in rice callus” value (1.0 kb ZmCAS1 promoter [6]) was “strong GUS expression”.
